# Key:
# [1] = MicroPET imaging, biodistribution and pharmacokinetic in normal nude mice; type: in vivo, mouse; settings: for heart uptake / liver uptake: tail vein, microPET ROI
# Procedure: PET imaging of normal nude mice was performed on a microPET R4 rodent model scanner (Concorde Microsystems Inc, Knoxville, Tenn.). The mice were injected with about 10-20 μCi of [^18F]FTPP via the tail vein. At 30 min, 1 hr, 2 hr, and 4 hr post injection, the mice were anesthetized with 2% isoflurane and placed in the prone position and near the center of the filed of view of microPET. The 10-min static scans were obtained, and the images were reconstructed by a two-dimensional ordered subsets expectation maximum (OSEM) algorithm. Regions of interest (ROIs) were then drawn over the […] on decay-corrected whole-body coronal images. The counts per pixel per minute were obtained from the ROI and converted to counts per milliliter per minute by using a calibration constant. By assuming a tissue density of 1 g/mL, the ROIs were converted to counts/g/min. An image ROI-derived percentage ID per gram of tissue (% ID/g) was then determined by dividing counts per gram per minute with injected dose (ID).
# C6 cells [2] = experiment: Mitochondrial membrane potential (MMP) dependent uptake of FTPP in C6 cells (CCCP, valinomycin, high K+ Hepes buffer); type: cell-based, rat
# Procedure: The extent of MMP and cell membrane potential-dependent cellular uptake of FTPP was further assessed using the C6 cells treated with CCCP, valinomycin, and high K^+ Hepes buffer (5 mM NaCl/135 mM KCl/1.8 mM CaCl2/0.8 mM MgSO4/50 mM Hepes/5.5 mM dextrose, pH 7.4). Carbonylcyanide-m-chlorophenylhydrazone (CCCP), a known protonphore that selectively abolishes the MMP,^26 was dissolved in dimethyl sulfoxide (DMSO) and diluted to desired concentration with low K^+ Hepes buffer. K^+-ionophore valinomycin was dissolved in ethanol and also diluted with low K^+ buffer. Final concentrations of ethanol and DMSO were below 0.1%. Varying concentrations of CCCP and valinomycin were added to the 0.5×10^6 cells in low K^+ Hepes buffer 30 min prior to the start of the experiment. After 1 hr of incubation with 5 μM FTPP, the eppendorf vials were centrifuged, cell lysate were prepared as described above, and the cell uptakes of FTPP were determined using MALDI-TOF-MS. Five sets of 0.5×10^6 cells were also suspended in high K^+ Hepes buffer for 60 min, then exposed to 5 μM FTPP for 10-90 min in high K^+ Hepes buffer. Cell uptake of FTPP was measured by MALDI-TOF-MS. The viability and the integrity of the cells after treatment with inhibitors and high K^+ buffer were examined using Trypan blue.
# C6 cells [3] = experiment: C6 cell uptake of phosphonium cations determined by MALDI-TOF-MS; type: cell-based, rat; settings: 5 μM; for rank of uptake in C6 cells among the compounds tested: 25° C.
# Procedure: A rat glioma C6 cell line was grown in Dulbecco's modified Eagle medium (DMEM, Invitrogen Life Technologies, Carlsbad, Calif.) high glucose (containing KCl 5.3 mmol/L and NaCl 110.34 mmol/L) plus 10% fetal bovine serum (FBS), and 1% penicillin-streptomycin at 37° C. in 5% CO2/95% air. After trypsinization, cells were washed with 0.01 M phosphate-buffered saline (PBS, pH=7.4) twice and suspended at 10×10^6 cells /mL in low K^+ Hepes buffer (135 mM NaCl/5 mM KCl/1.8 mM CaCl2/0.8 mM MgSO4/50 mM Hepes [4-(-2-hydroxyethyl)-1-piperazineethanesulfonic acid]/5.5 mM dextrose, pH 7.4). 50 μL (0.5×10^6) of C6 cells were incubated with 10 μL 100 μM stock phosphonium salts solution ([…], the structures of these phosphonium cations are shown in FIG. 1) and 140 μL Hepes buffer from 10 to 90 min at room temperature. The cells were centrifuged (250×g) for three minutes and washed twice with cold PBS buffer at specified times. Cell pellets were then lysed with 150 μL cold spectral grade water, following by freezing in dry ice. Right before the MALDI-TOF-MS analysis, the frozen cell solution was thawed and centrifuged at 12000×g for 5 min. 90 μL cell lysate and 10 μL 10 μM internal standard MeTPP were mixed together, and 1 μL solution was subjected to MALDI-TOF-MS analysis. Samples were prepared and analyzed in triplicate.
SMILES,heart uptake ([1]; 30 minutes pi) [% ID/g],liver uptake ([1]; 30 minutes pi) [% ID/g],heart uptake ([1]; 4 h pi) [% ID/g],liver uptake ([1]; 4 h pi) [% ID/g],"localization in microPET images ([1]; female nude mouse, 15 μCi)","route of clearance ([1]; female nude mouse, 15 μCi)","FTPP uptake (normalized) in presence of valinomycin (C6 cells [2]; 10 μM valinomycin, 5 μM FTPP, 1 hr, low K+ Hepes buffer)","FTPP uptake (normalized) in presence of CCCP (C6 cells [2]; 50 μM CCCP, 5 μM FTPP, 1 hr, low K+ Hepes buffer)","effect of CCCP or valinomycin on uptake (C6 cells [2]; CCCP 0.1-50 μM, valinomycin 0.1-10 μM, low K+ Hepes buffer)","decrease in uptake on depolarization of the plasma membrane (high K+ vs low K+ buffer) (C6 cells [2]; high K+ Hepes buffer, 90 min exposure time, 5 μM FTPP) [fold]",rank of uptake in C6 cells among the compounds tested (C6 cells [3]),"uptake in C6 cells as percentage of the TPP uptake (C6 cells [3]; glioma C6 cells in vitro, MALDI-TOF-MS) [%]"
"[18F]c1ccc([P+](c2ccccc2)(c2ccccc2)c2ccccc2)cc1 [[^18F]FTPP, (4-[^18F]fluorophenyl)triphenylphosphonium]",5.59±0.93,7.39±0.36,3.89±0.29,2.79±0.59,clearly localized in the heart,mainly cleared out through hepatobiliary system,–,–,–,–,–,–
"Fc1ccc([P+](c2ccccc2)(c2ccccc2)c2ccccc2)cc1 [FTPP, 4-Fluorophenyltriphenyl phosphonium]",–,–,–,–,–,–,about 72.8±3.6%,about 27.3±2.3%,inhibited by CCCP or valinomycin in dose-dependent manners,3.5,2nd place,80
"[Br-].c1ccc([P+](c2ccccc2)(c2ccccc2)c2ccccc2)cc1 [TPP, tetraphenylphosphonium bromide, reference compound]",–,–,–,–,–,–,–,–,–,–,highest uptake,–

# Reference: patent US20070092442A1, “F-18-fluorinated phosphonium cation imaging agents and methods of synthesis” (priority 2005, published 2007)
